# Assay results reported in patent publication US5925769A, “Acetylenic 1,5-diarylpyrazoles as antiinflammatory agents” (Ortho Pharmaceutical, Corp., priority 1998, dated 1999).
# Experiments:
# [1] = target: T1, 5-LO (Rattus norvegicus, UniProt P12527); experiment: Procedure II: 5-LO activity (5-HETE) in broken RBL-1 cells (homogenate supernatant); type: biochemical; conditions: RBL-1 broken cell supernatant; read-out: Proc. II 5-LO IC50
# T1 construct: the supernatant was saved as the source of enzymes; endogenous in cells; host or cells: RBL-1 (rat basophilic leukemia) cells
# T1 sequence (P12527 1-673): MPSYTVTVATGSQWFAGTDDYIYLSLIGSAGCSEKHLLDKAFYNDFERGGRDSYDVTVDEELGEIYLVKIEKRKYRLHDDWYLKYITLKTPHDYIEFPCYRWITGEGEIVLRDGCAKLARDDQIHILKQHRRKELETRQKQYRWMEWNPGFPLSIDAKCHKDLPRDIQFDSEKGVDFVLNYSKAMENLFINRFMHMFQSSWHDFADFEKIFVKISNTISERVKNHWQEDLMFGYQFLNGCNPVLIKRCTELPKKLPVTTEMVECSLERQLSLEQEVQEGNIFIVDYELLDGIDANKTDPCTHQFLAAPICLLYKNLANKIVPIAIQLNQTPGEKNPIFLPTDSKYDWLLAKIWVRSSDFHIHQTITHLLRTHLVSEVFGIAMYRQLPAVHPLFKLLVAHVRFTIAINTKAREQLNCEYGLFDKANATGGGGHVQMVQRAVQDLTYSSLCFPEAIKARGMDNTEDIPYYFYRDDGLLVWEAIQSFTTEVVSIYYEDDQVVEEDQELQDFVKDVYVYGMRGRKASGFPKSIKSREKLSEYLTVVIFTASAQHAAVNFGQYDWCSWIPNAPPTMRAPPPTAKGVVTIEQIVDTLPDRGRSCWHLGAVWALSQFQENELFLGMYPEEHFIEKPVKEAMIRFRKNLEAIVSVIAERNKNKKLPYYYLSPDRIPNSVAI
# Summary of the method: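 Supernatant from rat RBL-1 homogenate (9,220×g) was pre-incubated 5 min at 37 °C with 2 mM CaCl2 and compound or 1% DMSO, then with 1-^14C-arachidonic acid for 20 min at 37 °C.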
# [2] = target: T2, CO (Rattus norvegicus, UniProt Q63921); experiment: Procedure III: CO (PgD2) in intact RBL-1 cells; type: cell-based; conditions: calcium ionophore A 23187, read-out: Proc. III CO IC50
# T2 construct: the supernatant was saved as the source of enzymes; endogenous in cells; host or cells: RBL-1 (rat basophilic leukemia) cells
# T2 sequence (Q63921 27-602): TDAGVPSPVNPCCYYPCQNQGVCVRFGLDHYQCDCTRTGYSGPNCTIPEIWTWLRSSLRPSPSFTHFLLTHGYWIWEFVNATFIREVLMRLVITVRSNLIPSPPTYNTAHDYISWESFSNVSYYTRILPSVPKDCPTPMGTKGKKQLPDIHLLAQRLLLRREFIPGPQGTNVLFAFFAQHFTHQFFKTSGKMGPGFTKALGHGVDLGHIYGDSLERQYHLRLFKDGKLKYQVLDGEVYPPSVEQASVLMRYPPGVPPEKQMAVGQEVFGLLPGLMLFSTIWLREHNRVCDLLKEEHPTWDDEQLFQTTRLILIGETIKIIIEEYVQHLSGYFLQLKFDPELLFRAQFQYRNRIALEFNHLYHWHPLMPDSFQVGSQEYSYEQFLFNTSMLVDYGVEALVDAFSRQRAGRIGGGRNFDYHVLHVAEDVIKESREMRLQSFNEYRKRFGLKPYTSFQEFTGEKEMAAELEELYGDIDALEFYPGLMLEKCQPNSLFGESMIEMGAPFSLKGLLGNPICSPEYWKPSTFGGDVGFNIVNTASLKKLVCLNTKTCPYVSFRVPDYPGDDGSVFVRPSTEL
# Summary of the method: (§1)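 Intact RBL-1 cells at 1×10^5 cells/mL in HBSS were preincubated with vehicle or drug, pelleted and resuspended, then given 1-^14C-AA. 5-HETE (5-LO) and PgD2 (CO) were separated by TLC after acidification/extraction and quantified by radioimaging; IC50 from regression curve fit.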
# [3] = target: T1, 5-LO; experiment: Procedure III: 5-LO (5-HETE) in intact RBL-1 cells; type: cell-based; conditions: calcium ionophore A 23187, read-out: Proc. III 5-LO IC50
# Summary of the method: as §1
# [4] = system: CO; experiment: Procedure IV: ex vivo eicosanoid synthesis assay using dogs, CO (TxB2); type: in vivo; conditions: dog, oral, 5 mg/kg
# Experimental: Adult beagle or mongrel dogs (10-15 kg) of either sex were fasted overnight prior to the initiation of each experiment. The forelimb was clipped and swabbed with an alcohol prep (70% isopropanol). Blood was drawn by venipuncture into syringes containing lithium heparin (Starstead, Newton, N.C.) immediately prior to administration of compound or vehicle and then at various intervals following dosing. The test compound was administered orally as a suspension in 0.5% methocel. At various times after dosing, blood samples were drawn and placed on an electric rocker platform to assure complete and continuous mixing. White blood cell (wbc) counts were performed using a Sysmex hematology analyzer. This was done in an effort to normalize the number of leukocytes to be stimulated with calcium ionophore. A 1.0 mL aliquot of whole blood was challenged with 50 μL of a 2.6×10^-5 M solution of calcium ionophore A23187 (Calbiochem, La Jolla, Calif.) prepared in DMSO and diluted in HBSS. After a 15 minute incubation at 37° C., the reaction was stopped by placing the samples in an ice bath (4° C.) for 5 minutes and then centrifuging at 11,000×g for 5 minutes to separate the plasma fraction from blood cells. The plasma fraction was removed, diluted in an appropriate buffer, and analyzed for the presence of LTB4 and TxB2 by standard RIA techniques.
structure (smiles),measurement,setting,value
"COc1ccc(-n2nc(C#CCN(O)C(N)=O)cc2-c2ccc(C)cc2)cc1 [Cpd 1, N-Hydroxy-N-(1(1-(4-methoxyphenyl)-5-(4-methylphenyl)pyrazol-3-yl)-1-propyn-3-yl)urea]",IC50,[1],0.07 µM
same,IC50,[2],12.1 µM
same,IC50,[3],4.7 µM
same,% inh CO,[4]; 1 h,86%
same,% inh CO,[4]; 2 h,82%
same,% inh CO,[4]; 4 h,76%
same,% inh CO,[4]; 8 h,46%
same,% inh CO,[4]; 24 h,11%
